Data from patent publication US10202421B2, “Tumor-targeting compounds” (SKU Asset Management GmbH, priority 2009, dated 2019).
No end group written: not given here. *: point of attachment. For = O=C*

Experiments:
[1] = system: granulocytes; assay: Chemotaxis assay (trans-well assay for macrophage mobilization); format: cell-based
Excerpt: Concentration-dependent granulocyte activation of N-formyl peptide conjugates has been compared with activation of the peptide only. Each series of experiments has been repeated 3 times with 200,000 granulocytes each. […] Therefore, variations in the formyl peptide amino acid composition, e.g. different amino acid residues at position 3 (phenylalanine, proline) as in structure 1 and structure 2, provide a further means to tune the immune response.

[2] = Solubility at pH 7; format: physicochemical
Excerpt: (§1) The peptide SEQ ID NO 1, […] showing specific binding activity to the tumor marker Erb-B1/EGFR was chosen as binder and the macrophage-activating peptide formyl-MLP as effector to synthesize structure 1. The structure was synthesized chemically by standard methods known in the art and purified by ion exchange chromatography. Chemical identity was verified by mass spectrometry.

[3] = Size exclusion chromatography and dynamic light scattering analysis; format: physicochemical; settings: size exclusion chromatography, dynamic light scattering
Excerpt: as §1

[4] = biological target: T1, human EGFR/Erb-B1 (Homo sapiens, UniProt P00533); assay: Fluorescence spectroscopy binding/displacement test with NBD-labelled 12mer tracer and EGFR
T1 construct: purchased

N-formyl-Met-Leu-Pro (For-Met-Leu-Pro) [fMLP]
stimulation of granulocyte chemotaxis ([1]; separate experiment): can be stimulated

CC[C@H](C)[C@H](NC(=O)[C@@H](NC(=O)[C@H](CC(N)=O)NC(=O)[C@H](CCC(N)=O)NC(=O)[C@@H]1CCCN1C(=O)[C@@H](NC(=O)[C@H](Cc1ccc(O)cc1)NC(=O)CNC(=O)[C@H](Cc1ccc(O)cc1)NC(=O)[C@H](Cc1c[nH]c2ccccc12)NC(=O)[C@H](Cc1c[nH]cn1)NC(=O)[C@@H](N)Cc1ccc(O)cc1)[C@@H](C)O)C(C)C)C(=O)NCCOCCOCCOCCOCCOCCOCCOCCOCCOCCOCCOCCOCCOCCOCCOCCOCCOCCOCCOCCOCCOCCOCCOCCOCCOCCOCCOCCOCCC(=O)NCCCC[C@H](NC(=O)[C@H](CCCCNC(=O)CCOCCOCCOCCOCCOCCOCCOCCOCCOCCOCCOCCOCCOCCOCCOCCOCCOCCOCCOCCOCCOCCOCCOCCOCCOCCOCCOCCOCCNC(=O)[C@@H](NC(=O)[C@@H](NC(=O)[C@H](CC(N)=O)NC(=O)[C@H](CCC(N)=O)NC(=O)[C@@H]1CCCN1C(=O)[C@@H](NC(=O)[C@H](Cc1ccc(O)cc1)NC(=O)CNC(=O)[C@H](Cc1ccc(O)cc1)NC(=O)[C@H](Cc1c[nH]c2ccccc12)NC(=O)[C@H](Cc1c[nH]cn1)NC(=O)[C@@H](N)Cc1ccc(O)cc1)[C@@H](C)O)C(C)C)[C@@H](C)CC)NC(=O)[C@@H]1CCCN1C(=O)[C@H](CC(C)C)NC(=O)[C@H](CCSC)NC=O)C(=O)O [structure 1]
solubility [2]: ≤ 10000 µg/mL | oligomers or large aggregates [3]: no oligomers or large aggregates | displacement of fluorescent tracer peptide from EGFR complex ([4]; 1 µM EGFR/NBD-12mer complex titrated with increasing concentrations (FIG. 5d)): displacement of the fluorescent tracer | KD value for the interaction with EGFR ([4]; displacement of fluorescently labelled 12mer from EGFR complex, estimated): low nM range | macrophage activation profile ([1]; trans-well assay): demonstrated

N-formyl-Met-Leu-Phe (For-Met-Leu-Phe) [fMLF]
stimulation of granulocyte chemotaxis ([1]; separate experiment): can be stimulated | chemotactic response compared to fMLP ([1]; separate experiment, granulocytes): slightly higher

YHWYGYTPQNVI [unlabelled peptide, reference compound]
displacement of fluorescent tracer peptide from EGFR complex (fluorescence intensity) ([4]; EGFR-tracer complex 50 nM, PBS pH 7.5, 10 fold excess of unlabelled peptide (FIG. 5c)): decrease in fluorescence intensity
